From patent US20260265233A1, “BENZOTHIOPHENE DERIVATIVES AS RXFP1 AGONISTS” (BRISTOL-MYERS SQUIBB COMPANY, priority 2021, published 2026) come the findings set out here.

The target in the test is T1, human RXFP1 (Homo sapiens, UniProt Q9HBX9).
T1 construct: expressed in transfected cells
T1 sequence (Q9HBX9 1-757): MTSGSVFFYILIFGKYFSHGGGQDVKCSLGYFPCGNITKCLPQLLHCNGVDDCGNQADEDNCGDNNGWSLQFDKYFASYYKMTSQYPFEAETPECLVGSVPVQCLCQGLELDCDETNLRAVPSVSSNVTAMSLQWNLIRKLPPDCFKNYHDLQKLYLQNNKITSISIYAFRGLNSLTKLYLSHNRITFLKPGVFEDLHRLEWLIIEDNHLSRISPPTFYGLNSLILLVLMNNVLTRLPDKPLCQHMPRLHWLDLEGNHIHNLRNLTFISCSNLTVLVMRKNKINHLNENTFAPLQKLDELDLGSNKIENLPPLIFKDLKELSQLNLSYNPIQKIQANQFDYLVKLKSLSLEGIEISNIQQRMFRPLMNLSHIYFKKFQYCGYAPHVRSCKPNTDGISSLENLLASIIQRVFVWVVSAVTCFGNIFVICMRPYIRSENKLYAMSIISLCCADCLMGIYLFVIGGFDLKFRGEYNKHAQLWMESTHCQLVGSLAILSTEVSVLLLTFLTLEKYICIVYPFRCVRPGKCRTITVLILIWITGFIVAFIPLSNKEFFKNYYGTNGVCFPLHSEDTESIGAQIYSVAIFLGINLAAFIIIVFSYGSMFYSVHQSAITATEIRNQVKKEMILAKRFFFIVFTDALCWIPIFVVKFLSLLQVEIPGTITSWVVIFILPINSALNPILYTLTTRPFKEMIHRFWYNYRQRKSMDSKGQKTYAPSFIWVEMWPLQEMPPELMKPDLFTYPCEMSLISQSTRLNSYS
In words: hRXFP1 HEK293 cAMP assay (HTRF). Format: cell-based. The note with it: HEK293 cells stably expressing human RXFP1; 30 min at rt; intracellular cAMP by HTRF. The essentials:
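HEK293 cells stably expressing human RXFP1 treated 30 min at rt with compound (0.010 nM to 50 μM, 2% DMSO) in HBSS/HEPES buffer with 0.5 mM IBMX. Intracellular cAMP measured by HTRF (665/590 nm ratio) against a cAMP standard curve; potency fitted by 4-parameter logistic.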
(In general: Changes in cAMP serve as a functional read-out for many G protein-coupled receptors.)
By EC50 is commonly meant the concentration at which the effect is half-maximal. As to `COc1ccc(C2CC2C(=O)NC2CCOCC2)cc1C(=O)Nc1c(C(=O)Nc2ccc(F)c(C(F)(F)F)c2)sc2cc(C(F)(F)F)ccc12` (single isomer, unassigned) [Example 158, N-[4-fluoro-3-(trifluoromethyl)phenyl]-3-(2-methoxy-5-{2-[(oxan-4-yl)carbamoyl]cyclopropyl}benzamido)-6-(trifluoromethyl)-1-benzothiophene-2-carboxamide], the half-maximal effective concentration (EC50) came to 29.8 nM. As for `COc1ccc(C2CC2C(C)(C)O)cc1C(=O)Nc1c(C(=O)Nc2ccc(F)c(C(F)(F)F)c2)sc2cc(C(F)(F)F)ccc12` (single isomer, unassigned) [Example 160, N-[4-fluoro-3-(trifluoromethyl)phenyl]-3-{5-[2-(2-hydroxypropan-2-yl)cyclopropyl]-2-methoxy-benzamido}-6-(trifluoromethyl)-1-benzothiophene-2-carboxamide], the half-maximal effective concentration (EC50) was found to be 2300 nM. Regarding `COc1ccc(C2CC2C(C)(C)O)cc1C(=O)Nc1c(C(=O)Nc2ccc(F)c(C(F)(F)F)c2)sc2cc(C(F)(F)F)ccc12` (single isomer, unassigned) [Example 161, N-[4-fluoro-3-(trifluoromethyl)phenyl]-3-{5-[2-(2-hydroxypropan-2-yl)cyclopropyl]-2-methoxy-benzamido}-6-(trifluoromethyl)-1-benzothiophene-2-carboxamide], the EC50 was determined as 4940 nM.

As for `COc1ccc(C2CC2C(=O)N2CC(S(C)(=O)=O)C2)cc1C(=O)Nc1c(C(=O)Nc2ccc(F)c(C(F)(F)F)c2)sc2cc(C(F)(F)F)ccc12` (single isomer, unassigned) [Example 164, N-[4-fluoro-3-(trifluoromethyl)phenyl]-3-{5-[2-(3-methane-sulfonylazetidine-1-carbonyl)cyclopropyl]-2-methoxy-benzamido}-6-(trifluoromethyl)-1-benzothiophene-2-carboxamide], a half-maximal response (EC50) required 865 nM. As for `COc1ccc(C2CC2C(=O)N2CC(S(C)(=O)=O)C2)cc1C(=O)Nc1c(C(=O)Nc2ccc(F)c(C(F)(F)F)c2)sc2cc(C(F)(F)F)ccc12` (single isomer, unassigned) [Example 168, N-[4-fluoro-3-(trifluoromethyl)phenyl]-3-{5-[2-(3-methane-sulfonylazetidine-1-carbonyl)cyclopropyl]-2-methoxy-benzamido}-6-(trifluoromethyl)-1-benzothiophene-2-carboxamide], the EC50 came out at 176 nM. `COc1ccc(N2CCCC(C(=O)NC3COC3)C2)cc1C(=O)Nc1c(C(=O)Nc2ccc(F)c(C(F)(F)F)c2)sc2cc(C(F)(F)F)ccc12` (single isomer, unassigned) [Example 188, 1-(3-((2-((4-fluoro-3-(trifluoromethyl)phenyl)carbamoyl)-6-(trifluoromethyl)benzo[b]thiophen-3-yl)carbamoyl)-4-methoxyphenyl)-N-(oxetan-3-yl)piperidine-3-carboxamide] registered an EC50 of 772 nM. `COc1ccc(C2CCC(NCC(=O)O)CC2)cc1C(=O)Nc1c(C(=O)Nc2ccc(F)c(C(F)(F)F)c2)sc2cc(C(F)(F)F)ccc12` (single isomer, unassigned) [Example 211, (4-(3-((2-((4-fluoro-3-(trifluoromethyl)phenyl)carbamoyl)-6-(trifluoromethyl)benzo[b]thiophen-3-yl)carbamoyl)-4-methoxyphenyl)cyclohexyl) glycine] displayed an EC50 of 2770 nM. The value for `COc1ccc(N2CCOC(CC(C)(C)O)C2)cc1C(=O)Nc1c(C(=O)Nc2ccc(F)c(C(F)(F)F)c2)sc2cc(C(F)(F)F)ccc12` (single isomer, unassigned) [Example 227, N-(4-fluoro-3-(trifluoromethyl)phenyl)-3-(5-(2-(2-hydroxy-2-methylpropyl)morpholino)-2-methoxy-benzamido)-6-(trifluoromethyl) benzo[b] thiophene-2-carboxamide] was 1280 nM; that for `COc1ccc(N2CCOC(CC(C)(C)O)C2)cc1C(=O)Nc1c(C(=O)Nc2ccc(F)c(C(F)(F)F)c2)sc2cc(C(F)(F)F)ccc12` (single isomer, unassigned) [Example 228, N-(4-fluoro-3-(trifluoromethyl)phenyl)-3-(5-(2-(2-hydroxy-2-methylpropyl)morpholino)-2-methoxy-benzamido)-6-(trifluoromethyl) benzo[b] thiophene-2-carboxamide] was 1540 nM; that for `COc1ccc(N2CCCC(C(=O)NC3COC3)C2)cc1C(=O)Nc1c(C(=O)Nc2ccc(F)c(C(F)(F)F)c2)sc2cc(C(F)(F)F)ccc12` (single isomer, unassigned) [Example 229, 1-(3-((2-((4-fluoro-3-(trifluoromethyl)phenyl)carbamoyl)-6-(trifluoromethyl)benzo [b]thiophen-3-yl)carbamoyl)-4-methoxyphenyl)-N-(oxetan-3-yl)piperidine-3-carboxamide] was 2570 nM. For the molecule `COc1ccc(N2CCCC(C(=O)NCCO)C2)cc1C(=O)Nc1c(C(=O)Nc2ccc(F)c(C(F)(F)F)c2)sc2cc(C(F)(F)F)ccc12` (single isomer, unassigned) [Example 230, 1-(3-((2-((4-fluoro-3-(trifluoromethyl)phenyl)carbamoyl)-6-(trifluoromethyl)benzo[b]thiophen-3-yl)carbamoyl)-4-methoxyphenyl)-N-(2-hydroxyethyl) piperidine-3-carboxamide], a half-maximal effect (EC50) was put at 1400 nM.

`COc1ccc(N2CCCC(C(=O)NCCO)C2)cc1C(=O)Nc1c(C(=O)Nc2ccc(F)c(C(F)(F)F)c2)sc2cc(C(F)(F)F)ccc12` (single isomer, unassigned) [Example 231, 1-(3-((2-((4-fluoro-3-(trifluoromethyl)phenyl)carbamoyl)-6-(trifluoromethyl)benzo[b]thiophen-3-yl)carbamoyl)-4-methoxyphenyl)-N-(2-hydroxyethyl) piperidine-3-carboxamide] showed an EC50 of 1680 nM. Take `COc1ccc(C2=NOC3CN(C(=O)CO)CC23)cc1C(=O)Nc1c(C(=O)Nc2ccc(F)c(C(F)(F)F)c2)sc2cc(C(F)(F)F)ccc12` (single isomer, unassigned) [Example 242, N-(4-fluoro-3-(trifluoromethyl)phenyl)-3-(5-(5-(2-hydroxyacetyl)-3a,5,6,6a-tetrahydro-4H-pyrrolo[3,4-d]isoxazol-3-yl)-2-methoxy-benzamido)-6-(trifluoromethyl) benzo[b] thiophene-2-carboxamide]: the EC50 worked out at 9.8 nM. Consider `COc1ccc(C2=NOC3CN(C(=O)CO)CC23)cc1C(=O)Nc1c(C(=O)Nc2ccc(F)c(C(F)(F)F)c2)sc2cc(C(F)(F)F)ccc12` (single isomer, unassigned) [Example 243, N-(4-fluoro-3-(trifluoromethyl)phenyl)-3-(5-(5-(2-hydroxyacetyl)-3a,5,6,6a-tetrahydro-4H-pyrrolo[3,4-d]isoxazol-3-yl)-2-methoxy-benzamido)-6-(trifluoromethyl) benzo[b] thiophene-2-carboxamide], for which the response was half-maximal at 1050 nM (EC50).

`COc1ccc(C2=NOC3CN(C(=O)OC(C)(C)C)CC23)cc1C(=O)Nc1c(C(=O)Nc2ccc(F)c(C(F)(F)F)c2)sc2cc(C(F)(F)F)ccc12` (single isomer, unassigned) [Example 244, tert-butyl 3-(3-((2-((4-fluoro-3-(trifluoromethyl)phenyl)carbamoyl)-6-(trifluoromethyl)benzo[b]thiophen-3-yl)carbamoyl)-4-methoxyphenyl)-3a,4,6,6a-tetrahydro-5H-pyrrolo[3,4-d]isoxazole-5-carboxylate] had a half-maximal effective concentration (EC50) of 360 nM. The figure for `COc1ccc(C2=NOC3CN(C(=O)OC(C)(C)C)CC23)cc1C(=O)Nc1c(C(=O)Nc2ccc(F)c(C(F)(F)F)c2)sc2cc(C(F)(F)F)ccc12` (single isomer, unassigned) [Example 245, tert-butyl 3-(3-((2-((4-fluoro-3-(trifluoromethyl)phenyl)carbamoyl)-6-(trifluoromethyl)benzo[b]thiophen-3-yl)carbamoyl)-4-methoxyphenyl)-3a,4,6,6a-tetrahydro-5H-pyrrolo[3,4-d]isoxazole-5-carboxylate] is 463 nM; for `COc1ccc(C2=NOC3CN(C(=O)CO)CC23)cc1C(=O)Nc1c(C(=O)Nc2ccc(F)c(C(F)(F)F)c2)sc2ccccc12` (single isomer, unassigned) [Example 248, N-[4-fluoro-3-(trifluoromethyl)phenyl]-3-{5-[5-(2-hydroxyacetyl) 3aH,4H,5H,6H, 6aH-pyrrolo[3,4-d][1,2]oxazol-3-yl]-2-methoxy-benzamido}-1-benzothiophene-2-carboxamide] it is 545 nM.
